The source made the active and inactive calls. The calls are words filed in the database; no cut-off is given here.
Key:
Caenorhabditis elegans [1] = test: Reduction in oxygen consumption rate in Caenorhabditis elegans at 5 uM incubated for 24 hrs; type: functional, organism-based
Caenorhabditis elegans [2] = test: Activation of unfolded protein response in Caenorhabditis elegans mitochondria at 5 uM; type: functional, organism-based
[3] = Toxicity in iv dosed mouse assessed as maximum tolerated dose; type: organism-based; conditions: in vivo
Caenorhabditis elegans [4] = test: Inhibition of mitochondrial electron transport chain in Caenorhabditis elegans assessed as increase in life span at 5 uM; type: functional, organism-based
Caenorhabditis elegans [5] = test: Induction of mitochondrial morphology change in Caenorhabditis elegans at 5 uM incubated for 24 hrs; type: functional, organism-based
PANC-1 = test: Cytotoxicity against human PANC-1 cells incubated for 3 days by trypan blue assay; type: functional, cell-based; conditions: PANC-1, 72 h
HepG2 = test: Cytotoxicity against human HepG2 cells incubated for 3 days by trypan blue assay; type: functional, cell-based; conditions: HepG2, 72 h

SMILES	Activity (Caenorhabditis elegans [1])	Activity (Caenorhabditis elegans [2])	MTD [3]	Activity (Caenorhabditis elegans [4])	Activity (Caenorhabditis elegans [5])	IC50 (PANC-1)	IC50 (HepG2)
C=CC/C=C\Cc1csc(C(C)(C)[C@H](C/C=C\C(=C)CCNC(=O)OC)OC(C)=O)n1	Active	inactive	0.1 mg/kg	Active	inactive		
C=CC/C=C\Cc1csc(C(C)(C)[C@@H](O)C/C=C\C(=C)CCNC(=O)OC)n1	Active	inactive		Active	inactive		
C=CC/C=C\Cc1csc(C(C)(C)[C@H](O)C/C=C/C(=C)CCNC(=O)OC)n1	Active	inactive		Active	inactive	112 nM	115 nM
C=CC/C=C\Cc1csc(C(C)(C)[C@H](O)C/C=C\C(=C)CCNC(=O)OC)n1	Active	inactive		Active	inactive		
